In the assay the test system is Experimental Allergic Encephalomyelitis (EAE). Nature of the assay: Experimental Allergic Encephalomyelitis (EAE) model of multiple sclerosis. It is filed as in vivo. To be noted: mice, MOG35-55-induced EAE, 30 mg/Kg twice daily for 35 days. The procedure:
EAE was induced in two groups, each of 10 mice, by subcutaneous injection into the flank of 150 μg of the encephalitogenic peptide MOG35-55 ([…]; Auspep, Melbourne, Australia) emulsified in complete Freund's adjuvant (Difco, Detroit, U.S.A.), supplemented with 4 mg/mL of Mycobacterium tuberculosis, followed by intravenous injection of 350 ng of pertussis vaccine (List Biological Laboratories, Campbell, U.S.A.), with the pertussis vaccine injection repeated after 48 hours.
Compound 1 was dissolved in 3% aqueous Tween 80 at 4mg/mL and stored at 4° C. Starting on the day of immunization with MOG35-55, the mice were treated twice daily with 30 mg/Kg of compound 1 or an equal volume of water for the 35 day duration of the experiment.
The mice were monitored daily and neurological impairment was quantified on an arbitrary scale: 0, no detectable impairment; 1, flaccid tail; 2, hind limb weakness; 3, hind limb paralysis; 4, hind limb paralysis and ascending paralysis; 5, moribund or dead.
At the end of the experiment, the mice were killed and hematoxylin and eosin stained sections of brain and spinal cord were scored blindly by two independent investigators using the following scale: 0, no inflammation; 1, few very small cellular infiltrate in the perivascular areas and meninges; 2, mild cellular infiltrate; 3, moderate cellular infiltrate; 4, severe cellular infiltrate; 5, very large and extensive cellular infiltrate.

Where [1] appears, read: neurological impairment scale 0-5.

For the compound `Cc1nn(C)c2nc(OCCN3CCCC3)c(C(=O)NC(=O)Nc3cccc(OC(C)C)c3)cc12.Cl` [Compound 1, 1-{1,3-dimethyl-6-[2-(pyrrolidin-1-yl)ethoxy]-1H-pyrazolo[3,4-b]pyridine-5-carbonyl}-3-(3-isopropoxyphenyl)urea hydrochloride], the “Mean onset” value is given as 17.2 days. Further, where the note is “affected/total”, the EAE incidence is 5/10. Under setting [1], this compound displayed a Mean cumulative score of 7.25 and a Mean maximum score of 1.4.

The values above are taken from US6962926B2, “Antagonist of MCP-1 function, and compositions and methods of use thereof” (Telik, Inc., priority 2001, dated 2005).
